From patent US9468632B2, “Methods and compositions for targeting cancer stem cells” (The Regents of the University of Michigan, priority 2012, dated 2016)
Numbering of substitutions follows the chain as printed.

Experiments:
[1] = test system: ALDH+ cells; experiment: Time to recovery after treatment, isolated ALDH+ cells; assay type: cell-based
Description: (§1) A. Time to recovery for SKOV3 ovarian cancer cells treated with cisplatin or combined cisplatin and ALDH inhibitor. […] Cisplatin treated ALDH+ cells required approximately 6 days to recover whereas cisplatin treated ALDH− cells required 14 days to recover.

[2] = test system: ALDH− cells; experiment: Time to recovery after treatment, isolated ALDH− cells; assay type: cell-based
Description: as §1

[3] = test system: in vitro treated, PI-/Annexin-FACS isolated live cells; experiment: Tumor initiation capacity of in vitro treated live cells injected into mice; assay type: in vivo
Method: An important functional aspect of a cancer stem cell is the ability to initiate tumors with limited cell numbers. In order to determine if UM673 could impact tumor initiation, cells were treated in vitro with a single dose of UM673 alone or in combination with cisplatin. Cells were allowed to recover for three days and then PI(−)/Annexin(−) live cells were faxed isolated and injected into mice. 200, 1000, or 5000 cells from each treatment group (n=4-10/group) were injected.

[4] = test system: A2780 tumor cell xenografts; experiment: A2780 tumor cell xenografts, tumor growth; assay type: in vivo, mice; conditions: unsorted A2780 cells, treatment from day 3
Method: 6-8 week old nude female mice were purchased from Charles River Laboratories. All xenograft experiments were performed with approval of the University Committee on Use and Care of Animals of the University of Michigan. To generate tumors, 7.5×10^4 unsorted A2780 cells or 7500 CD133+ sorted A2780 cells were combined with 100 μl of DPBS and 100 μl of Matrigel (BD Biosciences), and then implanted subcutaneously into bilateral axillae of each mouse. 3 days after inoculation with tumors, mice were given an intra-peritoneal injection of (1) control DMSO 40 μl, (2) Cisplatin 250 μg/ml, (3) UM #673 10 μM, or (4) Cisplatin plus UM #673 (n=9 mice per treatment group). Tumor growth was measured using calipers, and tumor volume was calculated based on the modified ellipsoid formula (L×W×W/2), where L is the length and W is the width of the tumor. The mice were euthanized when tumors reached 1.5 to 2 cm^3 and animal safety euthanasia guidelines were met. Intraperitoneal tumors were generated using 5×10^6 OVCAR8 in […] of PBS and injected I.P. 3 days after inoculation, mice were given intra-peritoneal injection of Cisplatin or Cisplatin plus UM #673.
The impact of UM673 as a single agent was evaluated. NOD/SCID mice were inoculated with 1×10^5 unsorted A2780 cells and treatment was initiated three days after tumor inoculation with either vehicle control or UM #673. […] This is consistent with other studies of CSC targeting agents.
The experiments were repeated in combination with cisplatin. In addition, xenografts from both whole cell line and FACS isolated CD133+ cells were treated.

[5] = test system: primary human tumor xenografts; experiment: Primary human tumor xenografts from chemotherapy refractory ovarian cancer; assay type: in vivo, mice; conditions: treatment started at ˜500 mm^3
Description: In order to confirm in vivo activity against primary ovarian cancers, primary human tumor xenografts were generated from a patient with chemotherapy refractory ovarian cancer. Xenografts were allowed to grow until they reached ˜500 mm^3, and then treatment with either vehicle, cisplatin or cisplatin and UM 673 was initiated. […] After discontinuation of therapy, tumor regrowth was observed after approximately 4 weeks (FIG. 5D).

[6] = target: T1, ALDH1A1 (WT) (Homo sapiens, UniProt P00352); experiment: In vitro enzymatic inhibition assay, ALDH1A1 (WT); assay type: biochemical
T1 sequence (P00352 1-501): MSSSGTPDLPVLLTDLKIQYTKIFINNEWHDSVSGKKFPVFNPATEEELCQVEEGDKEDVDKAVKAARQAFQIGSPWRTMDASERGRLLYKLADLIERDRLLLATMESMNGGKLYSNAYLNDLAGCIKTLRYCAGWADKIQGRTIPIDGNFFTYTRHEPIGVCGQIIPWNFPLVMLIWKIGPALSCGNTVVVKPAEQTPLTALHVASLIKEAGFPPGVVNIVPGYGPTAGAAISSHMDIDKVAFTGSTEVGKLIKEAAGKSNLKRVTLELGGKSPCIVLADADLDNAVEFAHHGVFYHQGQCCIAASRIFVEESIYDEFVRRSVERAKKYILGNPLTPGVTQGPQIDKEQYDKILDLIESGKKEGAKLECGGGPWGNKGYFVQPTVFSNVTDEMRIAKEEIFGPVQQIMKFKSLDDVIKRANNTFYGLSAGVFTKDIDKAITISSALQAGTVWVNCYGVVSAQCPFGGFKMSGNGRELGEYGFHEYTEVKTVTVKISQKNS

[7] = target: T2, ALDH1A1 (S121) (Homo sapiens, UniProt P00352, N121S); experiment: In vitro enzymatic inhibition assay, ALDH1A1 (S121); assay type: biochemical
T2 sequence (P00352 1-501 N121S): T1 sequence (P00352 1-501) with N121S

[8] = target: T3, ALDH1A2 (Homo sapiens, UniProt O94788); experiment: In vitro enzymatic inhibition assay, ALDH1A2; assay type: biochemical
T3 sequence (O94788 1-518): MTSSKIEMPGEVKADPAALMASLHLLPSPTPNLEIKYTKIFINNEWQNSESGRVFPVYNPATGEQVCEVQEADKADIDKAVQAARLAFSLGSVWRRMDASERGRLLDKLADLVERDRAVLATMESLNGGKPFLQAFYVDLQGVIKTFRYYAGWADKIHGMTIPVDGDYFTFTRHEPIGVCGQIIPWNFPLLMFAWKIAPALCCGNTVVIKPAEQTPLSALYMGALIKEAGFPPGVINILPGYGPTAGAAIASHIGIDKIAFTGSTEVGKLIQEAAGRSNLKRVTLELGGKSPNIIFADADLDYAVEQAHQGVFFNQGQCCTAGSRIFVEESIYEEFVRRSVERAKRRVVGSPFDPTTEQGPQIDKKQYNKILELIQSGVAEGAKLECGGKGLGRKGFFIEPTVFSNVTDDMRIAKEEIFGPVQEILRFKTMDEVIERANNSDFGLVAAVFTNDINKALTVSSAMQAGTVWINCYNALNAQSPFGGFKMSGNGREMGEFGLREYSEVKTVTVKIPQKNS

[9] = target: T4, ALDH1A3 (Homo sapiens, UniProt P47895); experiment: In vitro enzymatic inhibition assay, ALDH1A3; assay type: biochemical; conditions: 2 min incub
T4 sequence (P47895 1-512): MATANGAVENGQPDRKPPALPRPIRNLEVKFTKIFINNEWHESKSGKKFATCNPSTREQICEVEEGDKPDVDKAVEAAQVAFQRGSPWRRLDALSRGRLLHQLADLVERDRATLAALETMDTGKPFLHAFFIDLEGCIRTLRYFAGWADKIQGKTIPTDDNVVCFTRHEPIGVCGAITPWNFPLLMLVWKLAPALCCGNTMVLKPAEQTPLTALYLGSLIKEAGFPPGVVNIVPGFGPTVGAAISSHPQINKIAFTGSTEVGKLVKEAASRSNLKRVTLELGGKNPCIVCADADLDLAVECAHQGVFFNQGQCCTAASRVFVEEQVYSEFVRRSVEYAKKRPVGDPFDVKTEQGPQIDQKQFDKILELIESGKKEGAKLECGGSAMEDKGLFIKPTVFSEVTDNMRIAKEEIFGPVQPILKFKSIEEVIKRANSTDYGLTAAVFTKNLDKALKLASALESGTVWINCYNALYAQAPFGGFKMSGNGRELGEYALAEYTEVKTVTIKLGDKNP

[10] = target: ALDH2 (Homo sapiens, UniProt P05091); experiment: In vitro enzymatic inhibition assay, ALDH2; assay type: biochemical
ALDH2, sequence (P05091 18-517): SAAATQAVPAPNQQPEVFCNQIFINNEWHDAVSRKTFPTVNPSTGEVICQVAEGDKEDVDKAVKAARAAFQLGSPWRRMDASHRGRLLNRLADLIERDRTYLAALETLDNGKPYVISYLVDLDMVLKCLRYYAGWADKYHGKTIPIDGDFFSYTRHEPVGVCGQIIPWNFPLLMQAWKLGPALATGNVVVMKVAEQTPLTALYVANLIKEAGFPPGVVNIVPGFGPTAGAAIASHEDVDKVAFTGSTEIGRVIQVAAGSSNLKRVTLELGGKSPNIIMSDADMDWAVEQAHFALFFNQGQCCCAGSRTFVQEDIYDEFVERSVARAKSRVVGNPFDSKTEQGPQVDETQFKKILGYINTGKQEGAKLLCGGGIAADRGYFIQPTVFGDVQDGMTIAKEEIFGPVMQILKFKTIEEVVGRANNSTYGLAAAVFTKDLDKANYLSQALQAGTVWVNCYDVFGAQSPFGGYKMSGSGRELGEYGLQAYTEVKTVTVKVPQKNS

Row | Structure (SMILES) | time to recover back to initial cell levels [1] | time to recover [2] [days] | tumor initiation (tumors/injections) ([3]; 200 cells injected) | tumor initiation (tumors/injections) ([3]; 1000 cells injected) | tumor initiation (tumors/injections) ([3]; 5000 cells injected) | effect on tumor initiation capacity ([3]; compared to untreated controls) | tumor growth [4] | tumor growth [5] | IC50 [6] [nM] | IC50 [7] [nM] | IC50 [8] [nM] | IC50 [9] [nM] | IC50 [10] [nM]
1 | N.N.[Cl][Pt][Cl] [Cisplatin, reference compound] | approximately 6 days | 14 | 1/4 | 4/4 | 8/8 | neither cisplatin or UM673 affected tumor initiation | modest restrictions in tumor growth | no effect on tumor growth | – | – | – | – | –
2 | O=Cc1ccc(N2Cc3ccccc3C2)cc1 [673B] | – | – | – | – | – | – | – | – | 450 ± 35 | 1240 ± 118 | 800 ± 147 | 1340 ± 480 | > 20000
3 | Cc1cc(N2Cc3ccccc3C2)ccc1C=O [673A] | – | – | – | – | – | – | – | – | 216 ± 22 | 230 ± 10 | 211 ± 36 | 170 ± 28 | 1680 ± 190
